Article PMC11513842, “Development of an orally bioavailable CDK12/13 degrader and induction of synthetic lethality with AKT pathway inhibition” (Cell Reports Medicine, 2024)
Like-named read-outs stand apart in the source and are kept apart here.

Assays:
VCaP cells [1] = assay: Cell viability assay (CellTiter-Glo, 5 days); format: cell-based, human; conditions: Homo sapiens, VCaP
Method: (§1) Cells were seeded in 96-well plates and incubated at 37°C with 5% CO2 overnight. A series of compound dilutions were added into the cells. After 5 days incubation, cell proliferation was tested using the CellTiter-Glo assay (Promega) according to the manufacturer’s protocol. Luminescence was measured using the Infinite M1000 Pro plate reader (Tecan). Data analysis was conducted using GraphPad Prism software.

22RV1 = assay: Cell viability assay (CellTiter-Glo, 5 days); format: cell-based; conditions: Homo sapiens
Method: as §1

BPH-1 = assay: Cell viability assay (CellTiter-Glo, 5 days); format: cell-based; conditions: Homo sapiens; BPH-1, dose-response curve, Figure 3A
Method: as §1

CWR22RV1 = assay: Cell viability assay (CellTiter-Glo, 5 days); format: cell-based; conditions: Homo sapiens, 120 h; CWR22RV1, 5 days of treatment, Figure 1F
Method: as §1

DU145 = assay: Cell viability assay (CellTiter-Glo, 5 days); format: cell-based; conditions: Homo sapiens, DU-145, 120 h; DU145, 5 days of treatment, Figure 1F
Method: as §1

LAPC4 = assay: Cell viability assay (CellTiter-Glo, 5 days); format: cell-based; conditions: Homo sapiens
Method: as §1

MCF10A = assay: Cell viability assay (CellTiter-Glo, 5 days); format: cell-based; conditions: Homo sapiens, MCF-10A, 120 h, 5 days of treatment, Figure 1F
Method: as §1

MCF12A = assay: Cell viability assay (CellTiter-Glo, 5 days); format: cell-based; conditions: Homo sapiens, MCF-12A, 120 h, 5 days of treatment, Figure 1F
Method: as §1

MCF7 = assay: Cell viability assay (CellTiter-Glo, 5 days); format: cell-based; conditions: Homo sapiens, 120 h; MCF7, 5 days of treatment, Figure 1F
Method: as §1

MDA-MB-468 = assay: Cell viability assay (CellTiter-Glo, 5 days); format: cell-based; conditions: Homo sapiens, 120 h; MDA-MB-468, 5 days of treatment, Figure 1F
Method: as §1

MFM223 = assay: Cell viability assay (CellTiter-Glo, 5 days); format: cell-based; conditions: Homo sapiens, MFM-223, 120 h; MFM223, 5 days of treatment, Figure 1F
Method: as §1

PC3 = assay: Cell viability assay (CellTiter-Glo, 5 days); format: cell-based; conditions: Homo sapiens, PC-3, 120 h; PC3, 5 days of treatment, Figure 1F
Method: as §1

PNT2 = assay: Cell viability assay (CellTiter-Glo, 5 days); format: cell-based; conditions: Homo sapiens, 120 h; PNT2, 5 days of treatment, Figure 1F
Method: as §1

PrEC = assay: Cell viability assay (CellTiter-Glo, 5 days); format: cell-based; conditions: Homo sapiens, 120 h, 5 days of treatment, Figure 1F
Method: as §1

RWPE1 = assay: Cell viability assay (CellTiter-Glo, 5 days); format: cell-based; conditions: Homo sapiens, RWPE-1; RWPE, dose-response curve, Figure 3A
Method: as §1

SK-BR-3 = assay: Cell viability assay (CellTiter-Glo, 5 days); format: cell-based; conditions: Homo sapiens, 120 h; SK-BR-3, 5 days of treatment, Figure 1F
Method: as §1

WPMY-1 = assay: Cell viability assay (CellTiter-Glo, 5 days); format: cell-based; conditions: Homo sapiens, 120 h; WPMY-1, 5 days of treatment, Figure 1F
Method: as §1

PC310 organoids = assay: PC310 organoid viability dose-response; format: cell-based; conditions: Homo sapiens, Figure S1J
[2] = test system: androgen receptor (AR)-positive prostate and breast cancer cells; assay: Cell viability screening, panel of 155 normal and cancer cell lines; format: cell-based; conditions: Homo sapiens, 120 h, 5 days, Figure 1G
Method: as §1

[3] = test system: normal and non-neoplastic cells; assay: as above; format: cell-based; conditions: Homo sapiens, 120 h, 5 days, Figure 1G
Method: as §1

[4] = Pharmacokinetic profile in Sprague Dawley rats; format: in vivo, rat; conditions: Sprague-Dawley, rat, plasma, SD rats; for AUC(0-t): read-out: AUC(0-t); for Tmax: read-out: Tmax
[5] = test system: castrated VCaP xenograft (VCaP-CRPC); assay: VCaP castration-resistant prostate cancer xenograft efficacy; format: in vivo, mouse; conditions: i.v. 30 mg/kg 3x/week, 18 days
Method: Six-week-old male CB17SCID mice obtained from Charles River (Stock # 236), were used to establish subcutaneous tumors on both dorsal flanks. Tumor dimensions were measured biweekly using digital calipers, applying the formula (π/6) (L × W^2), where L and W represent tumor length and width, respectively. At the study conclusion, mice were euthanized, and tumors were excised and weighed. The University of Michigan Institutional Animal Care and Use Committee (IACUC) approved all in vivo studies.
For the VCaP castration-resistant tumor model, 3×10^6 VCaP cells were subcutaneously injected into both dorsal flanks of mice using a serum-free medium mixed with 50% Matrigel (BD Biosciences). Upon tumors reaching palpable size (∼200 mm^3), animals underwent castration. When tumors regrew to their pre-castration size, mice were randomized for treatment with 30 mg/kg YJ9069 or vehicle via intravenous injection or 100 mg/kg YJ1206 or vehicle, […]

VCaP cells [6] = assay: Comet assay; format: cell-based, human; conditions: 100 nM, 12 h
Method: VCaP cells were seeded in 6-well plates one day prior to treatment. […] After 12 h incubation, the cells were trypsinized and resuspended at a concentration of 1 × 10^5 cells/mL in ice-cold PBS. The OxiSelect Comet Assay Kit (Cell Biolabs, STA-351) was used to assess DNA damage. Following the manufacturer’s protocol, cells were combined with pre-heated comet agarose at a 1:10 ratio, mixed thoroughly, and then transferred onto slides. The slides were incubated horizontally in the dark at 4°C for 20 min. Afterward, they were immersed in pre-chilled lysis buffer for 40 min at 4°C in the dark, followed by a 30-min incubation in pre-chilled alkaline solution at 4°C in the dark. Electrophoresis was then performed using alkaline solution at 30 V for 20 min. After electrophoresis, the slides were rinsed three times with pre-chilled deionized water, following with 70% ethanol for 5 min and completely dried at 37°C for 30 min. Subsequently, 100 μL of diluted Vista Green DNA dye was applied to each well. After 15 min incubation at room temperature, the comets were observed using a fluorescence microscope and quantified using ImageJ. The quantification figure was generated using GraphPad Prism software.

SMILES: O=C1CCC(N2C(=O)c3cccc(OCC(=O)N4CCN(c5ccc(N(C(=O)NCc6ccccc6)C6CCC(Nc7ncc8ccccc8n7)CC6)cc5)CC4)c3C2=O)C(=O)N1 (centres unmarked) [YJ9069]
- IC50 (VCaP cells [1]; 120 h, VCaP cells, 5 days, Figure 4C, read-out: IC50): 0.0222 µM
- IC50 (VCaP cells [1]; 120 h, VCaP cells, 5 days, Figure S1E, read-out: IC50): 0.044 µM
- IC50 (VCaP cells [1]; VCaP cell viability, linker optimization, Figure S4B, read-out: VCaP IC50): 0.0229 µM
- IC50 (22RV1; 120 h, 22RV1, 5 days of treatment, Figure 1F): 0.0903 µM
- IC50 (22RV1; 22RV1, dose-response curve, Figure 3A): 0.144 µM
- IC50 (BPH-1): > 10 µM
- IC50 (CWR22RV1): 0.428 µM
- IC50 (DU145): > 10 µM
- IC50 (LAPC4; 120 h, LAPC4, 5 days of treatment, Figure 1F): 0.152 µM
- IC50 (LAPC4; LAPC4, dose-response curve, Figure 3A): 0.109 µM
- IC50 (MCF10A): > 10 µM
- IC50 (MCF12A): > 10 µM
- IC50 (MCF7): 1.74 µM
- IC50 (MDA-MB-468): 0.678 µM
- IC50 (MFM223): 0.0442 µM
- IC50 (PC3): 2.39 µM
- IC50 (PNT2): > 10 µM
- IC50 (PrEC): > 10 µM
- IC50 (RWPE1): > 10 µM
- IC50 (SK-BR-3): 1.28 µM
- IC50 (WPMY-1): > 10 µM
- IC50 (PC310 organoids): 0.107 µM
- IC50 [2]: < 0.5 µM
- IC50 [3]: > 10 µM
- Cmax ([4]; iv, i.v. 2.5 mg/kg): 4130 nM
- clearance ([4]; iv, i.v. 2.5 mg/kg): 14.1 mL/min/kg
- half-life ([4]; iv, i.v. 2.5 mg/kg): 4.39 h
- AUC ([4]; iv, i.v. 2.5 mg/kg, read-out: AUC(0-)): 2970 ng·h/mL
- AUC(0-t) ([4]; iv, i.v. 2.5 mg/kg): 2930 ng·h/mL
- Tmax ([4]; iv, i.v. 2.5 mg/kg): 0.08 h
- Cmax ([4]; oral 10 mg/kg): 6 nM
- bioavailability ([4]; oral 10 mg/kg vs i.v. 2.5 mg/kg, read-out: F(%) (bioavailability by oral gavage)): 0.04%
- AUC(0-t) ([4]; oral 10 mg/kg): 5.06 ng·h/mL
- Tmax ([4]; oral 10 mg/kg): 1.56 h
- treated animals with tumor regression exceeding 50% ([5]; VCaP-CRPC): 73%
- partial response (PR), waterfall plot (RECIST) ([5]; castrated VCaP): 82%
- stable disease (SD), waterfall plot (RECIST) ([5]; castrated VCaP): 18%
- DNA damage (tail moment) (VCaP cells [6]): significant increase in the tail moment
